Laboratory results reported in PubChem BioAssay AID248 (DTP/NCI, 2004).
Values joined by “and” are separate entries in the source; they are usually repeats but may differ in a detail not shown here. Identical values can stand only once. Toxic doses and inconclusive results are not listed.

Tested on: L1210 leukemia ip in BDF1 mice, survival T/C
Assay: NCI In Vivo Anticancer Drug Screen. Data for tumor model L1210 Leukemia (intraperitoneal) in B6D2F1 (BDF1) mice
Details: endpoint: mean survival time, higher = longer survival
In short: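 Each compound was tested against a transplantable tumor grown in mice. The endpoint was survival, with treated animals benchmarked against vehicle controls as a simple ratio.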

[1] = dose: 100.0 mg/kg/injection, schedule: Q01DX001 (ip), vehicle: other
[2] = dose: 100.0 mg/kg/injection, schedule: Q04DX003 (ip), vehicle: Klucel (hydroxypropylcellulose) (HPC)
[3] = dose: 200.0 mg/kg/injection, schedule: Q01DX001 (ip), vehicle: other
[4] = dose: 200.0 mg/kg/injection, schedule: Q04DX003 (ip), vehicle: Klucel (hydroxypropylcellulose) (HPC)
[5] = dose: 100.0 mg/kg/injection, schedule: Q01DX009 (ip), vehicle: Klucel (hydroxypropylcellulose) (HPC)
[6] = dose: 200.0 mg/kg/injection, schedule: Q01DX009 (ip), vehicle: Klucel (hydroxypropylcellulose) (HPC)
[7] = dose: 400.0 mg/kg/injection, schedule: Q01DX009 (ip), vehicle: Klucel (hydroxypropylcellulose) (HPC)
[8] = dose: 400.0 mg/kg/injection, schedule: Q04DX003 (ip), vehicle: Klucel (hydroxypropylcellulose) (HPC)
[9] = dose: 100.0 mg/kg/injection, schedule: Q04DX003 (ip), vehicle: saline with Tween-80
[10] = dose: 200.0 mg/kg/injection, schedule: Q04DX003 (ip), vehicle: saline with Tween-80
[11] = dose: 400.0 mg/kg/injection, schedule: Q04DX003 (ip), vehicle: saline with Tween-80
[12] = dose: 100.0 mg/kg/injection, schedule: Q04DX002 (ip), vehicle: saline with Tween-80
[13] = dose: 200.0 mg/kg/injection, schedule: Q04DX002 (ip), vehicle: saline with Tween-80
[14] = dose: 400.0 mg/kg/injection, schedule: Q04DX002 (ip), vehicle: saline with Tween-80
[15] = dose: 100.0 mg/kg/injection, schedule: Q01DX001 (ip), vehicle: saline

## CC(CCCN(CCCl)CCCl)Nc1c2ccccc2nc2c1ccc1ccccc12 (stereo unspecified)
dose: 0.15 mg/kg/injection, schedule: Q01DX009 (ip), vehicle: saline
  T/C: 109 % of control
dose: 0.31 mg/kg/injection, schedule: Q01DX009 (ip), vehicle: saline
  T/C: 110 % of control
dose: 0.63 mg/kg/injection, schedule: Q01DX009 (ip), vehicle: saline
  T/C: 122 % of control
dose: 1.25 mg/kg/injection, schedule: Q01DX009 (ip), vehicle: saline
  T/C: 94 % of control
dose: 2.5 mg/kg/injection, schedule: Q01DX009 (ip), vehicle: saline
  T/C: 106 % of control

## CCCCC(CC)C1OCCS1 (stereo unspecified)
dose: 100.0 mg/kg/injection, schedule: Q01DX009 (ip), vehicle: saline
  T/C: 96 % of control
dose: 100.0 mg/kg/injection, schedule: Q04DX002 (ip), vehicle: saline
  T/C: 96 % of control
dose: 200.0 mg/kg/injection, schedule: Q01DX009 (ip), vehicle: saline
  T/C: 107 % of control
dose: 200.0 mg/kg/injection, schedule: Q04DX002 (ip), vehicle: saline
  T/C: 92 % of control
dose: 400.0 mg/kg/injection, schedule: Q01DX009 (ip), vehicle: saline
  T/C: 104 % of control
dose: 400.0 mg/kg/injection, schedule: Q04DX002 (ip), vehicle: saline
  T/C: 99 % of control

## CC(C)(C)OC(=O)NNC(=O)c1ccc([N+](=O)[O-])cc1
dose: 4.12 mg/kg/injection, schedule: Q01DX009 (ip), vehicle: Klucel (hydroxypropylcellulose) (HPC)
  T/C: 118 % of control
dose: 4.12 mg/kg/injection, schedule: Q01DX009 (ip), vehicle: saline
  T/C: 92 % of control
dose: 6.25 mg/kg/injection, schedule: Q01DX009 (ip), vehicle: Klucel (hydroxypropylcellulose) (HPC)
  T/C: 124 % of control
dose: 6.25 mg/kg/injection, schedule: Q01DX009 (ip), vehicle: saline
  T/C: 96 % of control
dose: 9.37 mg/kg/injection, schedule: Q01DX009 (ip), vehicle: Klucel (hydroxypropylcellulose) (HPC)
  T/C: 100 % of control
dose: 9.37 mg/kg/injection, schedule: Q01DX009 (ip), vehicle: saline
  T/C: 94 % of control
dose: 35.0 mg/kg/injection, schedule: Q01DX009 (ip), vehicle: saline
  T/C: 121 % of control
dose: 50.0 mg/kg/injection, schedule: Q04DX003 (ip), vehicle: Klucel (hydroxypropylcellulose) (HPC)
  T/C: 96 % of control
dose: 55.0 mg/kg/injection, schedule: Q01DX009 (ip), vehicle: saline
  T/C: 102 % of control
dose: 80.0 mg/kg/injection, schedule: Q01DX009 (ip), vehicle: saline
  T/C: 105 % of control
[1]
  T/C: 102 % of control
[2]
  T/C: 93 % of control
dose: 120.0 mg/kg/injection, schedule: Q01DX009 (ip), vehicle: Klucel (hydroxypropylcellulose) (HPC)
  T/C: 92 % of control
dose: 180.0 mg/kg/injection, schedule: Q01DX009 (ip), vehicle: Klucel (hydroxypropylcellulose) (HPC)
  T/C: 97 % of control
[3]
  T/C: 95 % of control
[4]
  T/C: 91 % of control

## O=C1C(I)=CC(=C(c2cc(I)c(O)c(I)c2)c2ccccc2C(=O)O)C=C1I
[5]
  T/C: 94 % of control
[2]
  T/C: 98 % of control
[6]
  T/C: 89 % of control
[4]
  T/C: 98 % of control
[7]
  T/C: 98 % of control
[8]
  T/C: 98 % of control

## COC(=O)C1C2C=CC(C2)C1C(=O)OC (stereo unspecified)
[9]
  T/C: 99 % of control
[10]
  T/C: 105 % of control
[11]
  T/C: 92 % of control

## [N-]=[N+]=C1C(c2ccccc2)=NC(c2nccc3ccccc23)=C1[N+](=O)[O-]
dose: 5.0 mg/kg/injection, schedule: Q01DX001 (ip), vehicle: saline
  T/C: 113 % of control
dose: 10.0 mg/kg/injection, schedule: Q01DX001 (ip), vehicle: saline
  T/C: 102 % of control
dose: 20.0 mg/kg/injection, schedule: Q01DX001 (ip), vehicle: saline
  T/C: 110 % of control

## COC(=O)Nc1nc2ccc(Br)cc2[nH]1
[5]
  T/C: 100 % of control
[2]
  T/C: 92 % of control
[6]
  T/C: 100 % of control
[4]
  T/C: 96 % of control
[7]
  T/C: 109 % of control
[8]
  T/C: 94 % of control

## C=C1C(=O)OC2CC(C)C(C(O)CC(C)O)=CCC12 (stereo unspecified)
dose: 50.0 mg/kg/injection, schedule: Q01DX001 (ip), vehicle: water
  T/C: 95 % of control
dose: 100.0 mg/kg/injection, schedule: Q01DX001 (ip), vehicle: water
  T/C: 95 % of control

## CCN=C(N)c1ccc(N=C(N)c2ccc(C(N)=Nc3ccc(C(N)=NCC)cc3)cc2)cc1
dose: 7.5 mg/kg/injection, schedule: Q01DX Z (oral), vehicle: saline
  T/C: 98 % of control
dose: 15.0 mg/kg/injection, schedule: Q01DX Z (ip), vehicle: saline
  T/C: 258 % of control
dose: 15.0 mg/kg/injection, schedule: Q01DX Z (oral), vehicle: saline
  T/C: 100 % of control
dose: 30.0 mg/kg/injection, schedule: Q01DX Z (oral), vehicle: saline
  T/C: 102 % of control
dose: 60.0 mg/kg/injection, schedule: Q01DX Z (oral), vehicle: saline
  T/C: 102 % of control
dose: 125.0 mg/kg/injection, schedule: Q## X010 (oral), vehicle: saline
  T/C: 103 % of control
dose: 150.0 mg/kg/injection, schedule: Q01DX Z (oral), vehicle: saline
  T/C: 89 % of control
dose: 250.0 mg/kg/injection, schedule: Q## X010 (oral), vehicle: saline
  T/C: 195 % of control

## COC1CCC(/C=C(\C#N)C2CCC([N+](=O)[O-])CC2)CC1 (stereo unspecified)
[12]
  T/C: 106 % of control
[13]
  T/C: 102 % of control
[14]
  T/C: 98 % of control

## CCCCCCCCCCCCOS(=O)(=O)O
[15]
  T/C: 98 % of control
dose: 200.0 mg/kg/injection, schedule: Q01DX001 (ip), vehicle: saline
  T/C: 95 % of control
dose: 400.0 mg/kg/injection, schedule: Q01DX001 (ip), vehicle: saline
  T/C: 98 % of control

## COc1ccc(C(=C(CC(=O)O)C(=O)OC(C)(C)C)c2ccc(OC)c(OC)c2)cc1OC
dose: 100.0 mg/kg/injection, schedule: Q01DX001 (ip), vehicle: carboxymethylcellulose (CMC)
  T/C: 96 % of control
dose: 100.0 mg/kg/injection, schedule: Q01DX009 (ip), vehicle: carboxymethylcellulose (CMC)
  T/C: 91 % of control
dose: 200.0 mg/kg/injection, schedule: Q01DX001 (ip), vehicle: carboxymethylcellulose (CMC)
  T/C: 97 % of control
dose: 200.0 mg/kg/injection, schedule: Q01DX009 (ip), vehicle: carboxymethylcellulose (CMC)
  T/C: 95 % of control
dose: 400.0 mg/kg/injection, schedule: Q01DX001 (ip), vehicle: carboxymethylcellulose (CMC)
  T/C: 94 % of control
dose: 400.0 mg/kg/injection, schedule: Q01DX009 (ip), vehicle: carboxymethylcellulose (CMC)
  T/C: 91 % of control
dose: 600.0 mg/kg/injection, schedule: Q01DX009 (ip), vehicle: carboxymethylcellulose (CMC)
  T/C: 91 % of control

## CCN(CC)C(=O)C(Br)C(Br)C(=O)N(CC)CC (stereo unspecified)
dose: 100.0 mg/kg/injection, schedule: Q04DX003 (ip), vehicle: acetone
  T/C: 100 % of control
dose: 200.0 mg/kg/injection, schedule: Q04DX003 (ip), vehicle: acetone
  T/C: 100 % of control
dose: 400.0 mg/kg/injection, schedule: Q04DX003 (ip), vehicle: acetone
  T/C: 92 % of control

## OC1(Cc2ccccc2)CCCCC1
[1]
  T/C: 102 % of control
[9]
  T/C: 102 % of control
[3]
  T/C: 110 % of control
[10]
  T/C: 104 % of control
dose: 400.0 mg/kg/injection, schedule: Q01DX001 (ip), vehicle: other
  T/C: 118 % of control
[11]
  T/C: 102 % of control

## CC1(C)N=C(N)N=C(N)N1c1ccc(C#N)cc1
[15]
  T/C: 100 % of control

## NS(=O)(=O)c1ccc(NC(=S)NC(=O)c2cccc([N+](=O)[O-])c2)cc1
dose: 50.0 mg/kg/injection, schedule: Q04DX003 (ip), vehicle: saline with Tween-80
  T/C: 97 % of control
dose: 100.0 mg/kg/injection, schedule: Q01DX001 (ip), vehicle: saline with Tween-80
  T/C: 96 % of control
dose: 100.0 mg/kg/injection, schedule: Q01DX009 (ip), vehicle: saline with Tween-80
  T/C: 96 % of control and 101 % of control
[12]
  T/C: 90 % of control
[9]
  T/C: 97 % of control and 105 % of control
dose: 200.0 mg/kg/injection, schedule: Q01DX001 (ip), vehicle: saline with Tween-80
  T/C: 101 % of control
dose: 200.0 mg/kg/injection, schedule: Q01DX009 (ip), vehicle: saline with Tween-80
  T/C: 103 % of control and 89 % of control
[13]
  T/C: 104 % of control
[10]
  T/C: 94 % of control
dose: 400.0 mg/kg/injection, schedule: Q01DX001 (ip), vehicle: saline with Tween-80
  T/C: 86 % of control
dose: 400.0 mg/kg/injection, schedule: Q01DX009 (ip), vehicle: saline with Tween-80
  T/C: 96 % of control and 89 % of control
[14]
  T/C: 87 % of control
[11]
  T/C: 89 % of control
